Values after ≈ are worked out from the molar mass of the structure shown.
Assays:
Staphylococcus aureus [1] = experiment: Antibacterial activity against vancomycin-sensitive Staphylococcus aureus Newman assessed as inhibition of bacterial growth after 16 hrs; format: functional, organism-based
Staphylococcus aureus [2] = experiment: Antibacterial activity against vancomycin-intermediate resistant Staphylococcus aureus Mu50 assessed as inhibition of bacterial growth after 16 hrs; format: functional, organism-based; conditions: Mu50, 16 h

Row | SMILES | IC50 (Staphylococcus aureus [1]) [µg/mL] | IC50 (Staphylococcus aureus [2]) [µg/mL]
1 | CN[C@H](CC(C)C)C(=O)N[C@H]1C(=O)N[C@@H](CC(N)=O)C(=O)N[C@H]2C(=O)N[C@H]3C(=O)N[C@H](C(=O)N[C@H](C(=O)O)c4cc(O)cc(O)c4-c4cc3ccc4O)[C@H](O)c3ccc(c(Cl)c3)Oc3cc2cc(c3O[C@@H]2O[C@H](CO)[C@@H](O)[C@H](O)[C@H]2O[C@H]2C[C@](C)(NCc3ccc(-c4ccc(Cl)cc4)cc3)[C@H](O)[C@H](C)O2)Oc2ccc(cc2Cl)[C@H]1O | < 0.125 | 2 (≈ 1.21 µM)
2 | CN[C@H](CC(C)C)C(=O)N[C@H]1C(=O)N[C@@H](CC(N)=O)C(=O)N[C@H]2C(=O)N[C@H]3C(=O)N[C@H](C(=O)N[C@H](C(=O)O)c4cc(O)cc(O)c4-c4cc3ccc4O)[C@H](O)c3ccc(c(Cl)c3)Oc3cc2cc(c3O[C@@H]2O[C@H](CO)[C@@H](O)[C@H](O)[C@H]2O[C@H]2C[C@](C)(NCC(OCc3ccccc3)C(=O)OC)[C@H](O)[C@H](C)O2)Oc2ccc(cc2Cl)[C@H]1O (stereo not given in full) | 8 (≈ 4.87 µM) | 32 (≈ 19.5 µM)
3 | CN[C@H](CC(C)C)C(=O)N[C@H]1C(=O)N[C@@H](CC(N)=O)C(=O)N[C@H]2C(=O)N[C@H]3C(=O)N[C@H](C(=O)N[C@H](C(=O)O)c4cc(O)cc(O)c4-c4cc3ccc4O)[C@H](O)c3ccc(c(Cl)c3)Oc3cc2cc(c3O[C@@H]2O[C@H](CO)[C@@H](O)[C@H](O)[C@H]2O[C@H]2C[C@](C)(NCC(OCc3ccc(-c4ccc(Cl)cc4)cc3)C(=O)OC)[C@H](O)[C@H](C)O2)Oc2ccc(cc2Cl)[C@H]1O (stereo not given in full) | < 0.125 | 2 (≈ 1.14 µM)
4 | CCCCOC(CN[C@@]1(C)C[C@H](O[C@H]2[C@H](Oc3c4cc5cc3Oc3ccc(cc3Cl)[C@@H](O)[C@@H](NC(=O)[C@@H](CC(C)C)NC)C(=O)N[C@@H](CC(N)=O)C(=O)N[C@H]5C(=O)N[C@H]3C(=O)N[C@H](C(=O)N[C@H](C(=O)O)c5cc(O)cc(O)c5-c5cc3ccc5O)[C@H](O)c3ccc(c(Cl)c3)O4)O[C@H](CO)[C@@H](O)[C@@H]2O)O[C@@H](C)[C@H]1O)C(=O)OC (stereo not given in full) | 16 (≈ 9.95 µM) | 64 (≈ 39.8 µM)
5 | CCCCCCOC(CN[C@@]1(C)C[C@H](O[C@H]2[C@H](Oc3c4cc5cc3Oc3ccc(cc3Cl)[C@@H](O)[C@@H](NC(=O)[C@@H](CC(C)C)NC)C(=O)N[C@@H](CC(N)=O)C(=O)N[C@H]5C(=O)N[C@H]3C(=O)N[C@H](C(=O)N[C@H](C(=O)O)c5cc(O)cc(O)c5-c5cc3ccc5O)[C@H](O)c3ccc(c(Cl)c3)O4)O[C@H](CO)[C@@H](O)[C@@H]2O)O[C@@H](C)[C@H]1O)C(=O)OC (stereo not given in full) | 2 (≈ 1.22 µM) | 4 (≈ 2.45 µM)
6 | CN[C@H](CC(C)C)C(=O)N[C@H]1C(=O)N[C@@H](CC(N)=O)C(=O)N[C@H]2C(=O)N[C@H]3C(=O)N[C@H](C(=O)N[C@H](C(=O)O)c4cc(O)cc(O)c4-c4cc3ccc4O)[C@H](O)c3ccc(c(Cl)c3)Oc3cc2cc(c3O[C@@H]2O[C@H](CO)[C@@H](O)[C@H](O)[C@H]2O[C@H]2C[C@](C)(NCC(OCc3ccccc3)C(=O)O)[C@H](O)[C@H](C)O2)Oc2ccc(cc2Cl)[C@H]1O (stereo not given in full) | 16 (≈ 9.83 µM) | 64 (≈ 39.3 µM)
7 | CN[C@H](CC(C)C)C(=O)N[C@H]1C(=O)N[C@@H](CC(N)=O)C(=O)N[C@H]2C(=O)N[C@H]3C(=O)N[C@H](C(=O)N[C@H](C(=O)O)c4cc(O)cc(O)c4-c4cc3ccc4O)[C@H](O)c3ccc(c(Cl)c3)Oc3cc2cc(c3O[C@@H]2O[C@H](CO)[C@@H](O)[C@H](O)[C@H]2O[C@H]2C[C@](C)(NCC(OCc3ccc(-c4ccc(Cl)cc4)cc3)C(=O)O)[C@H](O)[C@H](C)O2)Oc2ccc(cc2Cl)[C@H]1O (stereo not given in full) | < 0.125 | 2 (≈ 1.15 µM)
8 | CCCCOC(CN[C@@]1(C)C[C@H](O[C@H]2[C@H](Oc3c4cc5cc3Oc3ccc(cc3Cl)[C@@H](O)[C@@H](NC(=O)[C@@H](CC(C)C)NC)C(=O)N[C@@H](CC(N)=O)C(=O)N[C@H]5C(=O)N[C@H]3C(=O)N[C@H](C(=O)N[C@H](C(=O)O)c5cc(O)cc(O)c5-c5cc3ccc5O)[C@H](O)c3ccc(c(Cl)c3)O4)O[C@H](CO)[C@@H](O)[C@@H]2O)O[C@@H](C)[C@H]1O)C(=O)O (stereo not given in full) | 64 (≈ 40.2 µM) | 128 (≈ 80.3 µM)
9 | CCCCCCOC(CN[C@@]1(C)C[C@H](O[C@H]2[C@H](Oc3c4cc5cc3Oc3ccc(cc3Cl)[C@@H](O)[C@@H](NC(=O)[C@@H](CC(C)C)NC)C(=O)N[C@@H](CC(N)=O)C(=O)N[C@H]5C(=O)N[C@H]3C(=O)N[C@H](C(=O)N[C@H](C(=O)O)c5cc(O)cc(O)c5-c5cc3ccc5O)[C@H](O)c3ccc(c(Cl)c3)O4)O[C@H](CO)[C@@H](O)[C@@H]2O)O[C@@H](C)[C@H]1O)C(=O)O (stereo not given in full) | 4 (≈ 2.47 µM) | 8 (≈ 4.93 µM)
10 | CN[C@H](CC(C)C)C(=O)N[C@H]1C(=O)N[C@@H](CC(N)=O)C(=O)N[C@H]2C(=O)N[C@H]3C(=O)N[C@H](C(=O)N[C@H](C(=O)O)c4cc(O)cc(O)c4-c4cc3ccc4O)[C@H](O)c3ccc(c(Cl)c3)Oc3cc2cc(c3O[C@@H]2O[C@H](CO)[C@@H](O)[C@H](O)[C@H]2O[C@H]2C[C@](C)(N)[C@H](O)[C@H](C)O2)Oc2ccc(cc2Cl)[C@H]1O [VANCOMYCIN] | 2 (≈ 1.38 µM) | 8 (≈ 5.52 µM)

— ChEMBL document CHEMBL3259801, “Design and synthesis of new vancomycin derivatives” (Bioorg Med Chem Lett, 2014)
